Measured values taken from patent US20260285850A1, “SUBSTITUTED OXAZOLIDINONES AND IMIDAZOLINONES AS HERBICIDES” (FMC CORPORATION, priority 2023, published 2026).

Columns and labels:
Assay type in all cases: in vivo
[1] = tested on: barnyardgrass (Echinochloa crusgalli); assay: Test B flooded paddy test, visual plant response rating 0-100; settings: 250 g ai/ha, Flood, applied to paddy water, evaluated after 13 days
Procedure, shortened: (§1)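 Plants were grown to the 2-leaf stage, then pots were flooded to 3 cm above the soil and test compounds were applied directly into the paddy water. Water depth was held there throughout; after 13 days in a greenhouse, injury was scored visually against untreated controls.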

[2] = tested on: ducksalad (Heteranthera limosa); assay: as above; settings: 250 g ai/ha, Flood, applied to paddy water, evaluated after 13 days
Procedure, shortened: as §1

[3] = tested on: sedge, umbrella (small-flower umbrella sedge, Cyperus difformis); assay: as above; settings: 250 g ai/ha, Flood, applied to paddy water, evaluated after 13 days
Procedure, shortened: as §1

rice (Oryza sativa) = assay: as above; settings: 250 g ai/ha, Flood, applied to paddy water, evaluated after 13 days
Procedure, shortened: as §1

soybean (Glycine max) [4] = assay: Test A postemergence application, visual injury rating 0-100; settings: Postemergence
Procedure, shortened: (§2)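 Visual injury, scored 0-100 (100 = complete control) against untreated plants, 10 days after greenhouse treatment. Test chemicals in surfactant-containing non-phytotoxic solvent were applied in loam soil and sand, as a preemergence soil spray on seeds or postemergence to plants at the one- to two-leaf stage.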

[5] = tested on: oat, wild (wild oat, Avena fatua); assay: as above; settings: Postemergence
Procedure, shortened: as §2

[6] = tested on: barnyardgrass (Echinochloa crus-galli); assay: as above; settings: Postemergence
Procedure, shortened: as §2

corn (Zea mays) [7] = assay: as above; settings: Postemergence
Procedure, shortened: as §2

[8] = tested on: galium (catchweed bedstraw, Galium aparine); assay: as above; settings: Postemergence
Procedure, shortened: as §2

[9] = tested on: blackgrass (Alopecurus myosuroides); assay: as above; settings: Postemergence
Procedure, shortened: as §2

[10] = tested on: horseweed (Erigeron canadensis); assay: as above; settings: Postemergence
Procedure, shortened: as §2

[11] = tested on: ragweed (common ragweed, Ambrosia artemisiifolia); assay: as above; settings: Postemergence
Procedure, shortened: as §2

[12] = tested on: wheat (Triticum aestivum); assay: as above; settings: Postemergence
Procedure, shortened: as §2

[13] = tested on: palmer (palmer amaranth, palmer pigweed, Amaranthus palmeri); assay: as above; settings: Postemergence
Procedure, shortened: as §2

[14] = tested on: ryegrass, Italian (italian ryegrass, Lolium multiflorum); assay: as above; settings: Postemergence
Procedure, shortened: as §2

[15] = tested on: green foxtail (Setaria viridis); assay: as above; settings: Postemergence
Procedure, shortened: as §2

kochia (Bassia scoparia) [16] = assay: as above; settings: Postemergence
Procedure, shortened: as §2

soybean (Glycine max) [17] = assay: Test A preemergence soil spray, visual injury rating 0-100; settings: 0 to 100 scale, 10 days
Procedure, shortened: as §2

[18] = tested on: oat, wild (wild oat, Avena fatua); assay: as above; settings: 0 to 100 scale, 10 days
Procedure, shortened: as §2

[19] = tested on: barnyardgrass (Echinochloa crus-galli); assay: as above; settings: 0 to 100 scale, 10 days
Procedure, shortened: as §2

corn (Zea mays) [20] = assay: as above; settings: 0 to 100 scale, 10 days
Procedure, shortened: as §2

[21] = tested on: blackgrass (Alopecurus myosuroides); assay: as above; settings: 0 to 100 scale, 10 days
Procedure, shortened: as §2

[22] = tested on: ragweed (common ragweed, Ambrosia artemisiifolia); assay: as above; settings: 0 to 100 scale, 10 days
Procedure, shortened: as §2

[23] = tested on: wheat (Triticum aestivum); assay: as above; settings: 0 to 100 scale, 10 days
Procedure, shortened: as §2

[24] = tested on: palmer (palmer amaranth, palmer pigweed, Amaranthus palmeri); assay: as above; settings: 0 to 100 scale, 10 days
Procedure, shortened: as §2

[25] = tested on: ryegrass, Italian (italian ryegrass, Lolium multiflorum); assay: as above; settings: 0 to 100 scale, 10 days
Procedure, shortened: as §2

[26] = tested on: green foxtail (Setaria viridis); assay: as above; settings: 0 to 100 scale, 10 days
Procedure, shortened: as §2

kochia (Bassia scoparia) [27] = assay: as above; settings: 0 to 100 scale, 10 days
Procedure, shortened: as §2

[28] = 8 g ai/ha, 10 days, 0 is no effect, 100 is complete control
[29] = 31 g ai/ha, greenhouse 10 days, 0 no effect, 100 complete control

CC1(C(=O)NC2C=CC(C(=O)NS(=O)(=O)C3CC3)C2)CN(c2cc(F)cc(F)c2)C(=O)O1 (stereo not shown) [Compound 87]
10: Ragweed plant response rating (0 to 100 scale) [11, 28] | Blackgrass plant response rating ([21]; 8 g ai/ha) | Ragweed plant response rating ([22]; 8 g ai/ha) | Ragweed plant response rating ([22]; 31 g ai/ha) | Pigweed, Palmer plant response rating ([24]; 8 g ai/ha) | Kochia plant response rating (kochia (Bassia scoparia) [27]; 31 g ai/ha)
50: Soybean plant response rating (0 to 100 scale) (soybean (Glycine max) [4]; [29]) | Barnyardgrass plant response rating (0 to 100 scale) [6, 28] | Galium plant response rating (0 to 100 scale) [8, 28] | Ragweed plant response rating (0 to 100 scale) [11, 29] | Ryegrass, Italian plant response rating (0 to 100 scale) [14, 29]
70: Galium plant response rating (0 to 100 scale) [8, 29] | Amaranth, Palmer / Pigweed, Palmer plant response rating (0 to 100 scale) [13, 29]
30: Blackgrass plant response rating (0 to 100 scale) [9, 29] | Horseweed plant response rating (0 to 100 scale) [10, 29] | Pigweed, Palmer plant response rating (0 to 100 scale) [13, 28] | Kochia plant response rating (0 to 100 scale) (kochia (Bassia scoparia) [16]; [28]) | Ryegrass, Italian plant response rating ([25]; 31 g ai/ha) | Foxtail, Green plant response rating ([26]; 8 g ai/ha)
40: Foxtail, Green plant response rating (0 to 100 scale) [15, 29]
0: Plant response rating, Barnyardgrass (0 to 100 scale, 0 is no effect and 100 is complete control) [1] | Plant response rating, Ducksalad (0 to 100 scale, 0 is no effect and 100 is complete control) [2] | Plant response rating, Sedge, Umbrella (0 to 100 scale, 0 is no effect and 100 is complete control) [3] | Plant response rating, Rice (0 to 100 scale, 0 is no effect and 100 is complete control) (rice (Oryza sativa)) | Corn plant response rating (0 to 100 scale) (corn (Zea mays) [7]; [28]) | Blackgrass plant response rating (0 to 100 scale) [9, 28] | Wheat plant response rating (0 to 100 scale) [12, 28] | Foxtail, Green plant response rating (0 to 100 scale) [15, 28] | Soybean plant response rating (soybean (Glycine max) [17]; 8 g ai/ha) | Soybean plant response rating (soybean (Glycine max) [17]; 31 g ai/ha) | Oat, Wild plant response rating ([18]; 8 g ai/ha) | Oat, Wild plant response rating ([18]; 31 g ai/ha) | Barnyardgrass plant response rating ([19]; 8 g ai/ha) | Corn plant response rating (corn (Zea mays) [20]; 8 g ai/ha) | Corn plant response rating (corn (Zea mays) [20]; 31 g ai/ha) | Wheat plant response rating ([23]; 8 g ai/ha) | Ryegrass, Italian plant response rating ([25]; 8 g ai/ha) | Kochia plant response rating (kochia (Bassia scoparia) [27]; 8 g ai/ha)
100: Barnyardgrass plant response rating (0 to 100 scale) [6, 29] | Wheat plant response rating (0 to 100 scale) [12, 29]
20: Soybean plant response rating (0 to 100 scale) (soybean (Glycine max) [4]; [28]) | Oat, Wild plant response rating (0 to 100 scale) [5, 28] | Horseweed plant response rating (0 to 100 scale) [10, 28] | Ryegrass, Italian plant response rating (0 to 100 scale) [14, 28] | Blackgrass plant response rating ([21]; 31 g ai/ha) | Wheat plant response rating ([23]; 31 g ai/ha) | Foxtail, Green plant response rating ([26]; 31 g ai/ha)
80: Corn plant response rating (0 to 100 scale) (corn (Zea mays) [7]; [29]) | Kochia plant response rating (0 to 100 scale) (kochia (Bassia scoparia) [16]; [29])
90: Oat, Wild plant response rating (0 to 100 scale) [5, 29] | Barnyardgrass plant response rating ([19]; 31 g ai/ha) | Amaranth, Palmer (Pigweed, Palmer) plant response rating ([24]; 31 g ai/ha)
